The source of these data is article PMC6445193 (Journal of Enzyme Inhibition and Medicinal Chemistry, 2017).

The structures appear in SMILES notation. Like-named read-outs stand apart in the source and are kept apart here.

For one data set, the system named is SAHH. Also on record: method as in PMID 24813734. The note with it: data from literature; cited from earlier work.
On the set-up of data set [1]: method as in PMID 24813734. The note with it: long term exposure; cited from earlier work.
Data set [2] addresses T1, human S-adenosyl-homocysteine hydrolase (rSAHH) (Homo sapiens, UniProt P23526). The data set is described as follows: SAHH inhibition, IC50 determination with recombinant SAHH (hydrolysis of SAH, Hcy determined with DTNB). Format: biochemical.
Protocol: The activity of SAHH was expressed in units (U), which were defined as 1 μmol of SAH catalyzed by the enzyme per minute. Specific enzymatic activities (aspec) were calculated through the division of the enzymatic activities by the total protein amount used per assay and are expressed in U/mg. […] All of the values shown correspond to the mean values of at least three independent experiments, each of which was conducted in duplicate and all of the calculations were performed using Origin version 8.5 software and GraphPad Prism 5.
Stock solution of compounds (1 mM) for enzyme inhibition was prepared in DMSO. Both enzymes and substrates are diluted in Tris-HCl (pH = 6.5) to specified concentration when used for IC50 determination.
SAH is hydrolysed by SAHH into Hcy and adenosine. And Hcy can be directly determined using Ellman reagent (DTNB)[17].
The subject of a further data set is brain homocysteine. Also on record: method as in PMID 24813734. The note with it: reported by Converso; cited from earlier work.
The target of data set [3] is T1, human S-adenosyl-homocysteine hydrolase (rSAHH). The data set is described as follows: Enzyme kinetics of SAHH-catalyzed hydrolysis of SAH. The data set is classed as biochemical.
Protocol: The activity of SAHH was expressed in units (U), which were defined as 1 μmol of SAH catalyzed by the enzyme per minute. Specific enzymatic activities (aspec) were calculated through the division of the enzymatic activities by the total protein amount used per assay and are expressed in U/mg. SAHH enzyme reacted with the SAH at different temperature and different pH, in order to identify its optimal reaction conditions. All of the values shown correspond to the mean values of at least three independent experiments, each of which was conducted in duplicate and all of the calculations were performed using Origin version 8.5 software and GraphPad Prism 5.
The enzyme kinetic parameters (Km and Kcat) were calculated by least-squares fitting of the activity data at various substrate concentrations to the Michaelis–Menten equation with Origin version 8.5 software (Microcal Software, Northampton, MA).
Where [4] appears, read: recombinant human SAHH, Tris-HCl pH 6.5, read-out: SAHH IC50.

T1 sequence (P23526 whole entry): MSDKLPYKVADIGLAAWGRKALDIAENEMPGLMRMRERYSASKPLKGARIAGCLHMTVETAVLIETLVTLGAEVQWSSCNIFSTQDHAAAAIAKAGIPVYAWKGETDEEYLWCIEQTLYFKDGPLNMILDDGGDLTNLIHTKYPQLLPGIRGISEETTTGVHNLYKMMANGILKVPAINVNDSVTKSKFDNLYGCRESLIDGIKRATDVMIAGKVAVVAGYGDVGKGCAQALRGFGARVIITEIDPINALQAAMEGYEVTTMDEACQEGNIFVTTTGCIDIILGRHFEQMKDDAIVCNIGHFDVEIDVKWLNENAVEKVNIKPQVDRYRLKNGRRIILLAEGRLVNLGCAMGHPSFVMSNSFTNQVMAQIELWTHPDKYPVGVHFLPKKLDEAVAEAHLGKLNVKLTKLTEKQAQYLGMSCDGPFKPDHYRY

Regarding `Nc1ncnc2c1ncn2[C@@H]1C=C(CO)[C@@H](O)[C@H]1O` [NepA, Neplanocin A], in the data set with SAHH, the IC50 (commonly the concentration that inhibits the measured activity by half) is 1.5 nM. For the same compound, the cytotoxicity result in data set [1] is on record as “cytotoxic upon long term exposure”. In the case of `O=C(OO)c1ccc(Cl)cc1` [Compound 6], the IC50 in data set [2] is 565 nM. Consider `COc1ccc(C=O)cc1` [Compound 2], for which the IC50 in data set [2] (setting [4]) was 2130 nM. With `O=C(O)c1ccc(F)cc1` [Compound 8], the IC50 in data set [2] (setting [4]) worked out at 679 nM. On to `Nc1ncc(F)c2c1ncn2[C@@H]1CC[C@@H](O)[C@H]1O` [20 ^*], for which the IC50 in the data set with SAHH is 40 nM. In addition, in the data set with brain homocysteine, the “effect on brain homocysteine” value is recorded as “reduce brain homocysteine in a dose-dependent manner”.

In the case of `CCOC(=O)c1ccc(N)cc1` [Compound 10], the concentration for half-maximal inhibition (IC50) in data set [2] (setting [4]) is 1400 nM. Same read-out and setting: in the case of `COc1ccc(N)cc1` [Compound 9] it was 899 nM; in that of `COc1cc(C=O)ccc1O` [Compound 5], 1100 nM. Same read-out and setting: in the case of `O=C(O)/C=C/c1ccc(Cl)cc1` [Compound 12] it was 571 nM. As for `Fc1ccc(CBr)c(F)c1` [Compound 3], the IC50 in data set [2] turned out to be 913 nM.

As for `COc1ccc(/C=C/C(=O)O)cc1` [Compound 11], the concentration for half-maximal inhibition (IC50) in data set [2] (setting [4]) is 986 nM. On to `Oc1ccc(Cl)c(O)c1` [Compound 7], for which the IC50 in data set [2] came out at 1110 nM. Turning to `COC(=O)/C=C/c1ccc(CBr)cc1` [Compound 4], in data set [2] (setting [4]), the IC50 stood at 814 nM. Still for that read-out and setting: in the case of `COc1cc(C=CCO)ccc1O` [Compound 13, 4-(3-hydroxyprop-1-en-1-yl)-2-methoxyphenol] it was 34 nM. On to `On1nnc2ccccc21` [Compound 1], for which, in data set [2], the IC50 amounted to 1240 nM. As for `Nc1ncnc2c1ncn2[C@@H]1O[C@H](CSCC[C@H](N)C(=O)O)[C@@H](O)[C@H]1O` [SAH, S-adenosylhomocysteine], the Km (usually the concentration of substrate that gives half-maximal velocity) in data set [3] (read-out: apparent Km of the hydrolytic reaction, substrate SAH) was around 21.8 µM. The Vmax (in general, the top rate of the reaction or transport when substrate is in excess) in data set [3] (substrate SAH) was determined as 22.9 µM/min.
